# Measured values from patent US20100239562A1, “Kv CHANNELS IN NEURODEGENERATION AND NEUROPROTECTION” (priority 2006, published 2010).
# Where a SMILES comes first, the peptide text is derived from it. The star is where a group is joined. Cbz = O=C(OCc1ccccc1)*; CH2F = FC*
# B1: perforin: human perforin, membrane disrupting protein of lymphocyte granules (protein, UniProt P14222 22-555, looked up)
# Perforin-1: PCHTAARSECKRSHKFVPGAWLAGEGVDVTSLRRSGSFPVDTQRFLRPDGTCTLCENALQEGTLQRLPLALTNWRAQGSGCQRHVTRAKVSSTEAVARDAARSIRNDWKVGLDVTPKPTSNVHVSVAGSHSQAANFAAQKTHQDQYSFSTDTVECRFYSFHVVHTPPLHPDFKRALGDLPHHFNASTQPAYLRLISNYGTHFIRAVELGGRISALTALRTCELALEGLTDNEVEDCLTVEAQVNIGIHGSISAEAKACEEKKKKHKMTASFHQTYRERHSEVVGGHHTSINDLLFGIQAGPEQYSAWVNSLPGSPGLVDYTLEPLHVLLDSQDPRREALRRALSQYLTDRARWRDCSRPCPPGRQKSPRDPCQCVCHGSAVTTQDCCPRQRGLAQLEVTFIQAWGLWGDWFTATDAYVKLFFGGQELRTSTVWDNNNPIWSVRLDFGDVLLATGGPLRLQVWDQDSGRDDDLLGTCDQAPKSGSHEVRCNLNHGHLKFRYHARCLPHLGGGTCLDYVPQMLLGEPPGNRSGAVW
# What was measured:
# human fetal neurons = assay: Trypan blue uptake neurotoxicity assay in GrB-treated neuronal cultures; assay type: cell-based
# Experimental: (§1) FIG. 8A-8B Protection against Granzyme B neurotoxicity by Kv1.3 inhibitors. Human fetal neuronal cultures were treated with GB (4 nM) in the presence or absence of various K channel blockers. (FIG. 8A) Cell viability was determined by staining with CYTOQUANT™ blue and the staining was quantitated by a plate reader. […] (FIG. 8B) Cell viability was determined by staining with trypan blue and the % of cells staining were counted which represent dead cells. A minimum of 500 cells was counted in each well and each treatment was done in triplicate.
# Human fetal neurons were cultured as previously described (35). Briefly, human fetal brain specimens of 12-17 weeks gestation were obtained in accordance with NIH guidelines. The tissues were then triturated after removing the meninges. Cells were then cultured in T75 flasks in opti-MEM with 5% FBS, 0.5% N2 supplement and 1% antibiotics. Neurons were collected by carefully shaking the flask at least 1 month later. Cells were then seeded at 1×10^5/ml in 96 well plates for 1 week before treatment. These cultures contain 70-80% neurons, <5% microglia and the remaining cells are astrocytes as determined by immunostaining for microtubule associated antigen (MAP-2), CD68 and glial fibrillary acidic protein (GFAP) respectively.
# For trypan blue uptake, neuronal cells were seeded at 1×10^5/ml and incubated for 1 week in 96-well plates before treatment. […] The cells were then stained with trypan blue for 5 min, washed with phosphate buffered saline, pH7.4 (PBS) and fixed with 4% paraformaldehyde. Trypan blue positive and negative cells were counted in three pre-determined fields. Approximately 200 cells were counted in each well. Each experiment was done in triplicate wells and mean and SEM were calculated from at least three independent experiments.
# [1] = target: Kv1.3 channel (voltage-gated potassium channel) on human fetal neurons / neuronal precursor cells (human); assay: cell-based or functional assay
# [2] = test system: Neuronal precursor cells (NPC); assay: Caspase-3 activation in GrB-treated NPC cultures (Western-blot); assay type: cell-based; settings: for effect on GB-induced caspase-3 activation: GrB 4 nM 24 hours, pretreatment PTX 100 ng/ml, ROCK-I 10 nM or MgTX 10 nM
# [3] = test system: Human fetal neuronal cultures; assay: CYTOQUANT blue cell viability, GB-treated neuronal cultures with K channel blockers; assay type: cell-based; settings: GB 4 nM; CYTOQUANT blue staining, plate reader
# Experimental: as §1
# [4] = test system: Human fetal neuronal cultures; assay: Cyclic AMP assay in neuronal cultures; assay type: cell-based; settings: GrB 1 nM, 0-30 min
# Experimental: Human fetal neuronal cultures were seeded at 5×10^5/ml in 12 well plates for 1 week before treatment. Cultures were then treated with GrB (1 nM) in Locke's buffer for 0-30 min. After removing the media the cells were treated with 100 μl of 0.1 M HCl for 10 min to achieve cell lysis. The lysate was centrifuged at 600 g for 10 min and the supernatant was used directly for the cyclic AMP assay. Cyclic AMP competitive ELISA kit (ENDOGEN, Rockford, Ill.) was used according to manufacturer's directions.
# [5] = test system: Human fetal neuron cultures; assay: GrB neurotoxicity by caspase-3 activation and nuclear fragmentation; assay type: cell-based; settings: recombinant GrB 0.5 to 4 nM
# Experimental: Human fetal neuron cultures on cover slips were treated with GrB (1 nM) for 24 h. Caspase-3 and βIII tubulin expression in neurons was determined by immunocytochemistry. Briefly, cells were fixed with 4% paraformaldehyde for 5 min, and then blocked with 3% FBS in PBS for 20 min. Polyclonal caspase-3 antiserum (1:500) and monoclonal anti-BIII tubulin (1 μg/ml; Promega, Madison. WI) antibody were then applied and cover slips incubated overnight at 4° C. After washing with PBS, the cover slips were incubated with secondary antibodies (1:200 Donkey anti-rabbit IgG Alexa Fluor 594 and anti-mouse IgG Alexa Fluor 488, Molecular Probes, Eugene, Oreg.) for 2 h. Hochest 33258 (10 μM) was added at the last half an hour to stain the nucleus. The cells were imaged by confocal microscopy.
# (§2) Recombinant GrB induces toxicity in neurons but not in astroglia. […] We next determined the effect of perform on GrB induced neurotoxicity. We used threshold toxic concentrations of perform (50 ng/ml) for these experiments. […] We next determined if the GrB mediated toxicity could also occur in astrocytes. Human astrocyte cultures were similarly treated with recombinant GrB (dose-1-4 nM) and monitored for neurotoxicity.
# Primary neurons = assay: Calcium imaging (Fura-2/AM) of cytosolic calcium in neurons; assay type: cell-based
# Experimental: FIG. 4-4B. disrupts calcium homeostasis in neurons. Primary neurons were exposed to GrB for 30 min before imaging of intracellular calcium using Fura-2AM. (FIG. 4A). Resting levels of cytosolic calcium were increased by treatment with 1.0-100 nM GrB. (FIG. 4B). SDF-1α (10 μM) evoked increases of cytosolic calcium were increased by pre-treatment of neurons with 10 nM GrB. * P<0.001.
# Cytosolic calcium ([Ca^2+]c) was determined using the ratiometric calcium probe Fura-2/AM using methods similar to those previously described (36). Cells were incubated in 2 μM Fura-2/AM for 20 min at 37° C. in media and washed with Locke's Buffer (154 mM NaCl, 3.6 mM NaHCO3, 5.6 mM KCl, 1 mM MgCl2, 5 mM HEPES, 2.3 mM CaCl2, 10 mM glucose; pH 7.4) to remove extracellular Fura-2/AM. Fura-2 loaded cells were placed into a open bath chamber and maintained at 37° C. (Series 20 open perfusion chamber and TC-344B temperature controller; Warner Instruments. Hamden, Conn.). Buffer flowed over the cells at the rate of ˜2 ml/min using a VC-6 perfusion control system with a multi-input manifold that minimized dead space, allowing for a rapid change between buffer and buffer containing drug. Cells were alternatively excited at 340 and 380 nm by a monochrometer and emission was recorded at 510 with software from Intracellular Imaging (Intracellular Imaging Inc., Cincinnati, Ohio.) […] ratios were converted to nM [Ca^2+]c using curve fitting software and calcium reference standards (Molecular Probes).
# Kv1.3 [6] = assay: Kv1.3 immunostaining in GrB-treated NPC; assay type: cell-based; settings: GrB 4 nM, 24 hours
# Experimental: FIG. 9A-9H. […] NPC cultures on cover slips were treated with GrB (4 nM; FIGS. 9B, 9D, 9F, and 9H) for 24 hours or controls without GrB (FIGS. 9A, 9C, 9E, and 9G). The cells were then fixed in 4% paraformaldehyde and immunostained with mAb against nestin (FIGS. 9A-9B) and polyclonal Ab against Kv1.3, followed by fluorescence-conjugated secondary Abs (FIGS. 9C-9D). Nuclei were stained with Hoechst 33342 (Calbiochem, 10 μM; FIGS. 9E-9F). The cells were imaged by confocal microscopy. As shown, more than 98% of the cells were positive for nestin and also moderately stained for Kv1.3 in the control cultures.
# Human astrocyte cultures = assay type: cell-based; settings: recombinant GrB 1-4 nM
# Experimental: Enriched human fetal astroglia were cultured as previously described. Briefly, human fetal brain specimens of 12-17 weeks gestation were triturated after removal of the meninges. Cells were then cultured in T75 flasks in DMEM with 10% FBS and 1% antibiotics for at least 1 month. After shaking at 180 rpm for 1 h, cells were separated with trypsin/EDTA. Cells were then seeded at 1×10^5/ml in 96 well plates for 1 week before treatment. >95% of these cells were immunostained for GFAP.
# as §2
# Kv1.3 [7] = assay: Kv1.3 immunostaining in GB-treated neurons; assay type: cell-based, human; settings: GB 4 nM, 16 hours
# Experimental: FIG. 7A-7H. Expression of Kv1.3 on neurons and toxicity by Granzyme B. Human fetal neuronal cultures were treated with GB (4 nM; FIGS. 7E-7H) or control with no GB (FIGS. 7A-7D) and immunostained with antisera to beta-tubulin (red; FIGS. 7A and 7E) Kv1.3 (green; FIGS. 7C and 7G) and Hoechst (blue; FIGS. 7B and 7F), 16 hours following treatment. […] FIGS. 7D and 7H show merged images with immunostaining with both antisera and Hoechst.
# Expression of voltage gated channel, Kv1.3, in neurons. We discovered that that similar to T cells small basal levels of Kv1.3 channel were expressed on neurons. […] Similar increases in Kv1.3 immunostaining in neurons were also noted upon treatment with supernatants from activated T cells (FIG. 7A-7H).
# [8] = test system: Neuronal precursor cells (NPC); assay: Neuronal differentiation of NPC (βIII-tubulin / GFAP immunostaining); assay type: cell-based; settings: MgTX 10 nM for 7 days in differentiating media
# Experimental: FIG. 11. Kv1.3 specific blocker enhanced neuronal differentiation in NPC. NPC cultures were treated with (FIGS. 11D-11F) or without (FIGS. 11A-11C) Kv1.3 specific blocker MgTX (10 nM) for 7 days in differentiating media. The cells were then fixed in 4% paraformaldehyde and immunostained with mAb against neuron specific βIII-tubulin (FIGS. 11A, 11D) and polyclonal Ab against astrocyte specific GFAP (FIGS. 11B, 11E), followed by fluorescence-conjugated second Abs. The cells were observed and images were taken under confocal microscopy. […] FIGS. 11C and 11F show the merged images.
# [9] = agent 10 μM added 1 h prior to GrB, trypan blue uptake 48 h later
molecule,measurement,setting,value
Cc1c(C)c2c(c(C)c1O)CCC(C)(C(=O)O)O2 (stereo not drawn) [trolox],blocking of GrB-induced neurotoxicity,human fetal neurons; [9],blocked GrB neurotoxicity
"margatoxin (MgTX), Kv1.3 specific blocker (from UniProt P40755 1-39) (peptide)","protection of human fetal neurons against GB (4 nM) toxicity, trypan blue staining (% dead cells)",[1],1 to 10 nM
"O=C[C@@H](O)[C@@H](O)[C@H](O)[C@H](O)COP(=O)(O)O [Mannose-6-phosphate, D-mannose 6-phosphate]",inhibition of GrB-induced neurotoxicity,"human fetal neurons; pretreated with 10 mM mannose-6-phosphate, then GrB 1 nM, trypan blue uptake, 48 h",unable to inhibit GrB-induced neurotoxicity
pertussis toxin,effect on GB-induced caspase-3 activation,[2],attenuated GB-induced caspase-3 activation
same,blocking of GrB-induced neurotoxicity,"human fetal neurons; 10 μM pertussis toxin, added 1 h prior to GrB, trypan blue uptake, 48 h",blocked
COC(=O)C[C@H](NC(=O)[C@H](C)NC(=O)[C@@H](NC(=O)OCc1ccccc1)C(C)C)C(=O)CF [Z-VAD-fmk] (Cbz-Val-Ala-Asp(OMe)-CH2F),blocking of GrB-induced neurotoxicity,human fetal neurons; [9],significantly (P<0.05) blocked
"CCC(C)(C)C(=O)C(=O)N1CCC[C@H]1C(=O)OCCCc1cccnc1 [GPI-1046, 3-(3-pyridyl)-1-propyl (2S)-1-(3,3-dimethyl-1,2-dioxopentyl)-2-pyrrollidinecarboxylate]",blocking of GrB-induced neurotoxicity,human fetal neurons; [9],blocked GrB neurotoxicity
MnTMPyP,blocking of GrB-induced neurotoxicity,human fetal neurons; [9],significantly blocked the neurotoxicity
rTrtyustoxin: non-specific voltage gated K channel blocker (VFINAKCRGSPECLPKCKEAIGKAAGKCMNGKCKCYP),"protection against GB neurotoxicity (cell viability, optical density)",[3],protective
GrB: 32-kDa serine protease of lymphocyte granules; recombinant GrB used,cAMP levels,[4],significant decreases at 5 min
same,minimum concentration needed to cause significant neurotoxicity,[5],1 nM
same,"SDF-1α-evoked ER calcium release, peak increase","Primary neurons; cultures pre-treated with GrB (10 nM), SDF-1α",1000 nM
same,resting [Ca2+]c,"Primary neurons; higher dose of GrB, within 30 min",four fold
same,resting concentration of [Ca2+]c,"Primary neurons; lowest concentration tested, 1 nM GrB, within 30 min",doubled
same,Kv1.3 expression in NPC,Kv1.3 [6],significant increase in Kv1.3 expression
same,cell death in astrocyte cultures,Human astrocyte cultures,No evidence of cell death
same,caspase-3 activation in NPC,"[2]; GrB 4 nM, 24 hours",induced caspase-3 activation
same,Kv1.3 channel expression in neurons,Kv1.3 [7],increased expression of Kv1.3 channel in a subpopulation of cells
dendrotoxin,"protection against GB neurotoxicity (cell viability, optical density)",[3],failed to protect against GB neurotoxicity
margatoxin (TIINVKCTSPKQCLPPCKAQFGQSAGAKCMNGKCKCYPH) [Margotoxin],neuronal differentiation (βIII-tubulin positive cells and processes),[8],increased the number of βIII-tubulin positive cells and processes per cell
same,effect on GB-induced caspase-3 activation,[2],attenuated GB-induced caspase-3 activation
same,concentration with significant protection against GB toxicity,"human fetal neurons; GB 4 nM, trypan blue",1 to 10 nM
same,protection against GB toxicity (% trypan blue stained cells),"human fetal neurons; GB 4 nM, trypan blue",protected against GB toxicity in a dose responsive manner
B1,enhancement of GrB neurotoxicity,human fetal neurons; perforin 50 ng/ml combined with GrB 1 nM,enhancement was not statistically significant
